In patent US20170190671A1, “BIS(ARYL)CATECHOL DERIVATIVES AS HERBICIDES” (E I DU PONT DE NEMOURS AND COMPANY, priority 2014, published 2017):

Assays:
Experiment in all cases: Test C postemergence
Format in all cases: in vivo
[1] = test system: barnyardgrass (Echinochloa crus-galli); details: Echinochloa crus-galli, post-emergence, Postemergence, scale 0 to 100, read-out: Plant response rating, Barnyardgrass
[2] = test system: blackgrass (Alopecurus myosuroides); details: Alopecurus myosuroides, post-emergence, 336 h, Postemergence, scale 0 to 100, read-out: Plant response rating, Blackgrass
[3] = test system: chickweed (common chickweed, Stellaria media); details: Stellaria media, post-emergence, Postemergence, scale 0 to 100, read-out: Plant response rating, Chickweed
corn (Zea mays) = details: Zea mays, post-emergence, 336 h, Postemergence, scale 0 to 100
[4] = test system: galium (catchweed bedstraw, Galium aparine); details: Galium, post-emergence, 336 h, Postemergence, scale 0 to 100, read-out: Plant response rating, Galium
[5] = test system: giant foxtail (Setaria faberii); details: Setaria faberi, post-emergence, 336 h, Postemergence, scale 0 to 100, read-out: Plant response rating, Foxtail, Giant
[6] = test system: johnsongrass (Sorghum halepense); details: Sorghum halepense, post-emergence, 336 h, Postemergence, scale 0 to 100, read-out: Plant response rating, Johnsongrass
kochia (Kochia scoparia) = details: Bassia scoparia, post-emergence, Postemergence, scale 0 to 100, read-out: Plant response rating, Kochia
[7] = test system: lambsquarters (Chenopodium album); details: Chenopodium album, post-emergence, 336 h, Postemergence, scale 0 to 100, read-out: Plant response rating, Lambsquarters
[8] = test system: large (Lg) crabgrass (Digitaria sanguinalis); details: Digitaria sanguinalis, post-emergence, 336 h, Postemergence, scale 0 to 100, read-out: Plant response rating, Crabgrass, Large
[9] = test system: morningglory (Ipomoea coccinea); details: Ipomoea, post-emergence, 336 h, Postemergence, scale 0 to 100, read-out: Plant response rating, Morningglory
[10] = test system: oilseed rape (Brassica napus); details: Brassica napus, post-emergence, Postemergence, scale 0 to 100, read-out: Plant response rating, Oilseed Rape
[11] = test system: pigweed (Amaranthus retroflexus); details: Amaranthus retroflexus, post-emergence, 336 h, Postemergence, scale 0 to 100, read-out: Plant response rating, Pigweed
[12] = test system: ragweed (common ragweed, Ambrosia elatior); details: Ambrosia artemisiifolia, post-emergence, 336 h, Postemergence, scale 0 to 100, read-out: Plant response rating, Ragweed
soybean (Glycine max) = details: Glycine max, post-emergence, Postemergence, scale 0 to 100, read-out: Plant response rating, Soybean
[13] = test system: velvetleaf (Abutilon theophrasti); details: Abutilon theophrasti, post-emergence, Postemergence, scale 0 to 100, read-out: Plant response rating, Velvetleaf
[14] = test system: waterhemp (common waterhemp, Amaranthus rudis); details: Amaranthus tuberculatus, post-emergence, Postemergence, scale 0 to 100, read-out: Plant response rating, Waterhemp
[15] = test system: winter wheat (Triticum aestivum); details: Triticum aestivum, post-emergence, 336 h, Postemergence, scale 0 to 100, read-out: Plant response rating, Wheat
[16] = test system: yellow nutsedge (Cyperus esculentus); details: Cyperus, post-emergence, 336 h, Postemergence, scale 0 to 100, read-out: Plant response rating, Nutsedge, Yellow

Fc1cccc(Oc2ncc(Cl)cn2)c1Oc1ccc(Cl)nc1 [Compound 20]
pest or weed control at 31 g/ha ([1]; 31 g ai/ha): 5% | pest or weed control at 62 g/ha ([1]; 62 g ai/ha): 5% | pest or weed control at 125 g/ha ([1]; 125 g ai/ha): 10% | pest or weed control at 250 g/ha ([1]; 250 g ai/ha): 10% | pest or weed control at 31 g/ha ([2]; 31 g ai/ha): 5% | pest or weed control at 62 g/ha ([2]; 62 g ai/ha): 10% | pest or weed control at 125 g/ha ([2]; 125 g ai/ha): 5% | pest or weed control at 250 g/ha ([2]; 250 g ai/ha): 15% | pest or weed control at 31 g/ha ([3]; 31 g ai/ha): 35% | pest or weed control at 62 g/ha ([3]; 62 g ai/ha): 40% | pest or weed control at 125 g/ha ([3]; 125 g ai/ha): 45% | pest or weed control at 250 g/ha ([3]; 250 g ai/ha): 80% | Corn plant response rating (crop injury, 0 = no effect, 100 = complete kill) at 31 g/ha (corn (Zea mays); 31 g ai/ha): 5% | Corn plant response rating (crop injury, 0 = no effect, 100 = complete kill) at 62 g/ha (corn (Zea mays); 62 g ai/ha): 15% | Corn plant response rating (crop injury, 0 = no effect, 100 = complete kill) at 125 g/ha (corn (Zea mays); 125 g ai/ha): 20% | Corn plant response rating (crop injury, 0 = no effect, 100 = complete kill) at 250 g/ha (corn (Zea mays); 250 g ai/ha): 15% | pest or weed control at 31 g/ha ([4]; 31 g ai/ha): 50% | pest or weed control at 62 g/ha ([4]; 62 g ai/ha): 50% | pest or weed control at 125 g/ha ([4]; 125 g ai/ha): 70% | pest or weed control at 250 g/ha ([4]; 250 g ai/ha): 95% | pest or weed control at 31 g/ha ([5]; 31 g ai/ha): 15% | pest or weed control at 62 g/ha ([5]; 62 g ai/ha): 20% | pest or weed control at 125 g/ha ([5]; 125 g ai/ha): 15% | pest or weed control at 250 g/ha ([5]; 250 g ai/ha): 15% | pest or weed control at 31 g/ha ([6]; 31 g ai/ha): 5% | pest or weed control at 62 g/ha ([6]; 62 g ai/ha): 5% | pest or weed control at 125 g/ha ([6]; 125 g ai/ha): 5% | pest or weed control at 250 g/ha ([6]; 250 g ai/ha): 5% | pest or weed control at 31 g/ha (kochia (Kochia scoparia); 31 g ai/ha): 80% | pest or weed control at 62 g/ha (kochia (Kochia scoparia); 62 g ai/ha): 90% | pest or weed control at 125 g/ha (kochia (Kochia scoparia); 125 g ai/ha): 90% | pest or weed control at 250 g/ha (kochia (Kochia scoparia); 250 g ai/ha): 98% | pest or weed control at 31 g/ha ([7]; 31 g ai/ha): 85% | pest or weed control at 62 g/ha ([7]; 62 g ai/ha): 75% | pest or weed control at 125 g/ha ([7]; 125 g ai/ha): 75% | pest or weed control at 250 g/ha ([7]; 250 g ai/ha): 80% | pest or weed control at 31 g/ha ([8]; 31 g ai/ha): 5% | pest or weed control at 62 g/ha ([8]; 62 g ai/ha): 5% | pest or weed control at 125 g/ha ([8]; 125 g ai/ha): 10% | pest or weed control at 250 g/ha ([8]; 250 g ai/ha): 20% | pest or weed control at 31 g/ha ([9]; 31 g ai/ha): 30% | pest or weed control at 62 g/ha ([9]; 62 g ai/ha): 60% | pest or weed control at 125 g/ha ([9]; 125 g ai/ha): 65% | pest or weed control at 250 g/ha ([9]; 250 g ai/ha): 65% | plant injury at 31 g/ha ([10]; 31 g ai/ha): 15% | plant injury at 62 g/ha ([10]; 62 g ai/ha): 70% | plant injury at 125 g/ha ([10]; 125 g ai/ha): 80% | plant injury at 250 g/ha ([10]; 250 g ai/ha): 70% | pest or weed control at 31 g/ha ([11]; 31 g ai/ha): 75% | pest or weed control at 62 g/ha ([11]; 62 g ai/ha): 80% | pest or weed control at 125 g/ha ([11]; 125 g ai/ha): 90% | pest or weed control at 250 g/ha ([11]; 250 g ai/ha): 98% | pest or weed control at 31 g/ha ([12]; 31 g ai/ha): 20% | pest or weed control at 62 g/ha ([12]; 62 g ai/ha): 20% | pest or weed control at 125 g/ha ([12]; 125 g ai/ha): 45% | pest or weed control at 250 g/ha ([12]; 250 g ai/ha): 60% | plant injury at 31 g/ha (soybean (Glycine max); 31 g ai/ha): 25% | plant injury at 62 g/ha (soybean (Glycine max); 62 g ai/ha): 70% | plant injury at 125 g/ha (soybean (Glycine max); 125 g ai/ha): 65% | plant injury at 250 g/ha (soybean (Glycine max); 250 g ai/ha): 65% | pest or weed control at 31 g/ha ([13]; 31 g ai/ha): 35% | pest or weed control at 62 g/ha ([13]; 62 g ai/ha): 30% | pest or weed control at 125 g/ha ([13]; 125 g ai/ha): 35% | pest or weed control at 250 g/ha ([13]; 250 g ai/ha): 55% | pest or weed control at 31 g/ha ([14]; 31 g ai/ha): 85% | pest or weed control at 62 g/ha ([14]; 62 g ai/ha): 90% | pest or weed control at 125 g/ha ([14]; 125 g ai/ha): 90% | pest or weed control at 250 g/ha ([14]; 250 g ai/ha): 95% | plant injury at 31 g/ha ([15]; 31 g ai/ha): 0% | plant injury at 62 g/ha ([15]; 62 g ai/ha): 0% | plant injury at 125 g/ha ([15]; 125 g ai/ha): 5% | plant injury at 250 g/ha ([15]; 250 g ai/ha): 5% | pest or weed control at 31 g/ha ([16]; 31 g ai/ha): 0% | pest or weed control at 62 g/ha ([16]; 62 g ai/ha): 5% | pest or weed control at 125 g/ha ([16]; 125 g ai/ha): 10% | pest or weed control at 250 g/ha ([16]; 250 g ai/ha): 10%
